Results taken from patent US20240108744A1, “AURISTATIN DERIVATIVES AND CONJUGATES THEREOF” (priority 2022, published 2024).
Like-named read-outs stand apart in the source and are kept apart here. Square brackets hold non-standard residues; d marks the D form. Peptide text beside a SMILES is read from it. * marks the point of attachment. Dolaproine = CO[C@@H]([C@@H]1CCCN1)[C@@H](C)C(=O)O; Phe(βS-OH) = N[C@H](C(=O)O)[C@@H](O)c1ccccc1; Dil = CC[C@H](C)[C@H](NC)[C@@H](CC(=O)O)OC; X1 = CC(C)[C@@H](C(=O)*)N(C)CCS; X2 = CSCCN(C)[C@H](C(=O)*)C(C)C

Key:
Assay type in all cases: cell-based
[1] = system: SK-BR-3; test: In vitro cytotoxicity (CCK-8) in SK-BR-3 cells; conditions: Homo sapiens, SK-BR-3 cell line, 120 hours incubation
Method: (§1) Cytotoxic potencies of the compounds are assessed in flat-bottomed 96-well cell culture plates (Corning Costar) using cell counting Kit-8 (CCK-8) assay (Shanghai Life Lab Biotech Co., Ltd.). Briefly, human tumor cells (1,000-10,000 cells/well, depending on the cell line), in the appropriate culture medium are incubated, with the compounds, or with conjugates in the presence or absence of an excess of the corresponding unconjugated antibodies, for 120 hours, at 37° C., 5% CO2.
(§2) Dispensed 175 μL cell suspension in 96-well plate at 1500 cells per well and incubate for 24 hours in a humidified incubator (37° C., 5% CO2). Added 25 μL various concentrations of compound as a 5× solution into the cell culture medium (Fetal bovine serum, Invitrogen) in the plate and incubated for 120 hours in the incubator. Thawed CCK-8 on the bench top or in a 37° C. water bath, added 10 μL of CCK-8 to each well of the incubated plate (be careful not introducing air bubbles into the wells since they would interfere with the O. D. reading) and then further incubated for 1-4 hours in the incubator. Measured the absorbance at 450 nm using a SpectraMax i3x Microplate Reader and calculated the cell inhibition rate. The IC50 curves were generated along with the IC50 values by using GraphPad Prism software.

[2] = system: NCI-H2110; test: In vitro cytotoxicity (CCK-8) in NCI-H2110 cells; conditions: Homo sapiens
Method: as §1, §2

[3] = system: OVCAR-3; test: In vitro cytotoxicity (CCK-8) in OVCAR-3 cells; conditions: Homo sapiens
Method: as §1, §2

[4] = system: NCI-N87; test: In vitro cytotoxicity (CCK-8) in NCI-N87 cells; conditions: Homo sapiens, NCI-N87 cell line, 120 hours incubation
Method: as §1, §2

[5] = system: HCC 827; test: In vitro cytotoxicity (CCK-8) in HCC 827 cells; conditions: Homo sapiens
Method: as §1, §2

[6] = system: JMT-1; test: In vitro cytotoxicity (CCK-8) in JMT-1 cells; conditions: Homo sapiens, JMT-1 cell line, 120 hours incubation
Method: as §1, §2

[7] = system: BR 474; test: In vitro cytotoxicity (CCK-8) in BR 474 cells; conditions: Homo sapiens, BR 474 cell line, 120 hours incubation
Method: as §1, §2

[8] = system: SK-OV-3; test: In vitro cytotoxicity (CCK-8) in SK-OV-3 cells; conditions: Homo sapiens
Method: as §1, §2

[9] = NCI-H2110 cell line, 120 hours incubation, CCK-8, read-out: IC50
[10] = OVCAR-3 cell line, 120 hours incubation, CCK-8, read-out: IC50
[11] = HCC827, HCC 827 cell line, 120 hours incubation, CCK-8, read-out: IC50
[12] = SK-OV-3 cell line, 120 hours incubation, CCK-8, read-out: IC50

CC[C@@]1(O)C(=O)OCc2c1cc1n(c2=O)Cc2cc3c(CCCCO)c(C)c(F)cc3nc2-1 showed an IC50 [1] of 0.014 nM, an IC50 [2, 9] of 0.85 nM and an IC50 [3, 10] of 0.1 nM. For the same molecule, the IC50 [4] was 2.6 nM, the IC50 [5, 11] was 0.78 nM and the IC50 [6] was 14 nM. The IC50 [7] was greater than 1000 nM and the IC50 [8, 12] was 0.36 nM.

For CC[C@@]1(O)C(=O)OCc2c1cc1n(c2=O)Cc2c-1nc1cc(F)c(C)c3c1c2[C@@H](NC(=O)CO)CC3, the IC50 ([2]; NCI-H2110, 120 h) was 4.1 nM, the IC50 ([3]; OVCAR-3, 120 h) was 0.2 nM and the IC50 ([5]; HCC827, 120 h) was 1.8 nM. The IC50 ([8]; SK-OV-3, 120 h) was 3.6 nM.

Work on CC[C@H](C)[C@@H]([C@@H](CC(=O)N1CCC[C@H]1[C@H](OC)[C@@H](C)C(=O)N[C@H](C)[C@@H](O)c1ccccc1)OC)N(C)C(=O)[C@@H](NC(=O)[C@H](C(C)C)N(C)CCS)C(C)C yielded an IC50 [1] of 1.7 nM, an IC50 [2, 9] of 10 nM and an IC50 [4] of 4.8 nM. It also gave an IC50 [6] of 2.1 nM, an IC50 [7] of 5.1 nM and an IC50 [8, 12] of 7.7 nM.

For CC[C@H](C)[C@@H]([C@@H](CC(=O)N1CCC[C@H]1[C@H](OC)[C@@H](C)C(=O)N[C@H](C)[C@@H](O)c1ccccc1)OC)N(C)C(=O)[C@@H](NC(=O)[C@H](C(C)C)N(C)CCSC)C(C)C, the IC50 [1] was 0.41 nM, the IC50 [4] was 0.94 nM and the IC50 [6] was 0.49 nM.

CC[C@H](C)[C@@H]([C@@H](CC(=O)N1CCC[C@H]1[C@H](OC)[C@@H](C)C(=O)N[C@H](C(=O)O)[C@@H](O)c1ccccc1)OC)N(C)C(=O)[C@@H](NC(=O)[C@H](C(C)C)N(C)CCS)C(C)C (X1-V[Dil][Dolaproine][Phe(βS-OH)]-OH) was tested, and the IC50 [2, 9] was 12 nM, the IC50 [3, 10] was 67.6 nM and the IC50 [5, 11] was 108 nM. It also gave an IC50 [8, 12] of 38 nM.

CC[C@H](C)[C@@H]([C@@H](CC(=O)N1CCC[C@H]1[C@H](OC)[C@@H](C)C(=O)N[C@H](C(=O)O)[C@@H](O)c1ccccc1)OC)N(C)C(=O)[C@@H](NC(=O)[C@H](C(C)C)N(C)CCSC)C(C)C (X2-V[Dil][Dolaproine][Phe(βS-OH)]-OH) showed an IC50 [1] of 13.6 nM, an IC50 [4] of 32.3 nM and an IC50 [6] of 36.1 nM.
